The subject of one data set is KOPM28 cells. As to the kind of experiment: human CML cell proliferation inhibition. The data set is classed as cell-based. Conditions: 72 hours, Cell Counting Kit-8. A digest of the protocol: (§1)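 TCCS and KOPM28 (Bcr-Abl) and their T315I-mutant counterparts, 1×10^4 cells/well, exposed 72 h at 37 °C to 9 fivefold dilutions of compound, final up to 10 μM. Viability by CCK-8 absorbance at 450 nm after 2 h; GI50 from percentage of vehicle.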

In another data set the test system is TCCS cells. As to the kind of experiment: human CML cell proliferation inhibition. As to conditions: 72 hours, Cell Counting Kit-8. The data set is classed as cell-based. In a few lines:
as §1
(Formazan colour is commonly taken as a measure of viable cells.)

In a further data set the test system is T315I-KOPM28 cells. As to the kind of experiment: human CML cell proliferation inhibition. The data set is classed as cell-based. Conditions: 72 hours, Cell Counting Kit-8. In a few lines:
as §1

A further data set concerns T315I-TCCS cells. As to the kind of experiment: human CML cell proliferation inhibition. In kind it is cell-based. Conditions: 72 hours, Cell Counting Kit-8. A digest of the protocol:
as §1

Data set [1] in a line: oral pharmacokinetic test. The data set is classed as in vivo, SD rats. As to conditions: SD, plasma; rat, 10 mg/Kg PO, vehicle A (NMP:PEG400=5:95). As for the experimental part: To evaluate the pharmacokinetic properties in vivo, oral pharmacokinetic test was performed with the compounds of Comparative Examples 1 and 4 and Examples 1 and 4 using mice and rats, and the PK parameters are shown in Table 10.
ICR mice (6-7 weeks old) and SD rats (6-7 weeks old) were used for the test. The fasted group was fasted about 16 hours before oral administration, and the fed group was fasted about 4 hours before oral administration. The test drug for oral administration was used by dissolving the drug in a vehicle at a concentration of 1 mg/mL for use, and blood samples were collected (time point: 0.25, 0.5, 1, 2, 4, 8, 12, 24, 32, n=3) from the heart (mouse, 500 μL/time point) or jugular vein (rat, 120 μL/time point). Blood was centrifuged at 12,000 G at 4° C. for 2 minutes to separate plasma, and stored at −80° C. until analysis. • Vehicle A (NMP:PEG400=5:95) • Vehicle B (0.5% methyl cellulose) 6-2. Sampling and Pretreatment
To 20 μl of plasma, 180 μl of acetonitrile (including internal standard) was added. The mixture was vortexed and centrifuged for 5 minutes at 15,000 rpm at 4° C. The supernatant obtained after centrifugation was analyzed by LC-MS/MS.
PK parameters were calculated with a non-compartmental analysis model using Phoenix WinNonlin 6.4 version (Pharsight, USA) program.

Data set [2] concerns Luc_Ba/F3 T315I-Bcr-Abl cell line. As to the kind of experiment: in vivo pharmacological activity, blood cancer mouse model. Set-up: species or system nude mice. As to conditions: for day after the administration on which all subjects died (FIG. 3): vehicle group: day 21. As to the method:
After the mice were adapted to an animal facility for 1 week, the Luc_Ba/F3 T315I-Bcr-Abl cell line emitting luciferase was transplanted into the caudal vein at the density of 5×10^6/animal. Group separation was performed 3 days after the cell line transplantation. On the day of the group separation, 10 mice were randomly assigned to each group of 5 groups so that the luminescence values were equal after luminescence measurement using IVIS spectrum-CT optical imaging equipment.
In addition, the body weight and survival rate of each experimental group were monitored.
Statistical analysis was performed using GraphPad Prism 8, and the statistical significance of the survival rate was confirmed using unpaired t test and log-rank (Mantel-Cox) test.

What is called GI50 is the concentration at which growth is held to half of that of the control. Read a low GI50 as greater sensitivity of the cells. What is called AUC(0-t) is the area under the concentration-time curve up to a stated or last time point. As usually defined, the Cmax is the maximum level reached in the sampled fluid or tissue. The half-life is how long it takes for the measured level to halve. A low value points to rapid decline. `Cc1cn(-c2cc(NC(=O)c3cc(C#Cc4cnc5c(Nc6cnn(C)c6)cccn45)c(C)cc3F)cc(C(C)(C)C#N)c2)cn1` [Example 1, N-(3-(2-cyanopropane-2-yl)-5-(4-methyl-1H-imidazol-1-yl)phenyl)-2-fluoro-4-methyl-5-((8-((1-methyl-1H-pyrazol-4-yl)amino)imidazo[1,2-a]pyridin-3-yl)ethynyl)benzamide]: the GI50 in the data set on KOPM28 cells was less than 10 nM; in the data set on TCCS cells, less than 10 nM; with T315I-KOPM28 cells, 100 nM; in the data set with T315I-TCCS cells it was less than 10 nM. The compound further returned an exposure AUC(0-t) in data set [1] of 15900 ng·h/mL. The Cmax in data set [1] was determined as 2000 ng/mL. In data set [1], this compound showed a half-life of 3.3 h. Further, the “day after the administration on which all subjects died (FIG. 3)” value in data set [2] (25 mg/kg oral once a day for 10 days) amounted to 31 days; in data set [2] (50 mg/kg oral once a day for 10 days), 32 days; in data set [2] (100 mg/kg oral once a day for 10 days) it was 35 days. Moreover, the “dose dependence of luminescence signal (FIG. 2)” value in data set [2] (25, 50, 100 mg/kg oral once a day for 10 days) is reported as “decreased dose-dependently”. Moreover, the “luminescence values in optical images compared to the vehicle group (FIG. 1)” value in data set [2] (all treated groups, oral once a day for 10 days, images days 0, 4, 11, 18) is “weak luminescence values”. The “luminescence signals emitted from blood cancer cells compared to the vehicle group (FIG. 2)” value in data set [2] (day 18 after administration, 25, 50, 100 mg/kg oral) was “weak luminescence signals”.

Regarding `Cc1cn(-c2cc(NC(=O)c3cc(C#Cc4cnc5c(Nc6cnn(C)c6)cccn45)c(C)cc3F)cc(C(F)(F)F)c2)cn1` [Example 4, 2-fluoro-4-methyl-N-(3-(4-methyl-1H-imidazol-1-yl)-5-(trifluoromethyl)phenyl)-5-((8-((1-methyl-1H-pyrazol-4-yl)amino)imidazo[1,2-a]pyridin-3-yl)ethynyl)benzamide], the GI50 is 100 nM with KOPM28 cells, less than 10 nM in the data set on TCCS cells, 100 nM in the data set on T315I-KOPM28 cells and 100 nM in the data set on T315I-TCCS cells.

For the origin of these results see patent US12673945B2, “3-((8-((1H-pyrazol-4-yl)amino)imidazo[1,2-a]pyridin-3-yl)ethinyl)-n-phenylbenzamide derivative, method for preparing same, and pharmaceutical composition containing same as active ingredient for prevention or treatment of cancer” (DAEGU-GYEONGBUK MEDICAL INNOVATION FOUNDATION, priority 2020, dated 2026).
